Test results as given in patent publication US9205141B2, “Immunomodulatory methods and systems for treatment and/or prevention of hypertension” (Cardio Vax, LLC, priority 2010, dated 2015).

Assays:
[1] = test system: AngII-infused male apoE KO mice; assay: Blood pressure and heart rate in angiotensin II-infused apoE KO mice after P210 immunization; format: in vivo; conditions: apoE KO mice immunized s.c. 100 μg at 7, 10, 12 weeks; AngII 1000 ng/Kg/min; 4 weeks after pump implantation
Procedure: Saline was delivered to the control group.
Angiotensin II infusion via implanted osmotic pump was started at 10 weeks of age. Mice were euthanized at 14 weeks of age. Blood pressure was measured throughout the duration of experiment.

male apoE (−/−) mice = assay: Athero-protective effect of p210 immunization in apoE (−/−) mice on high cholesterol chow; format: in vivo; conditions: 100 μg dose compared to 25 or 50 μg dose
Description: Selection of peptides and their preparation for immunization The establishment and screening of human apoB-100 peptides has been reported (8). Based on Applicants pilot experiments and prior reports, (9),(10) Applicants selected peptide 210 (p210, KTTKQ SFDLS VKAQY KKNKH—SEQ ID NO: 210) as a candidate immunogen. Native p210 peptide (Euro-Diagnostica AB, Sweden) was conjugated to cationic bovine serum albumin (cBSA) as carrier using a method described previously. (3),(4) Alum was used as adjuvant and mixed with peptide/cBSA conjugate with 1:1 ratio in volume. Peptide conjugation and mixing with alum were prepared fresh prior to each immunization.
Immunization protocols Male apoE (−/−) mice (Jackson Laboratories) were housed in an animal facility accredited by the American Association of Accreditation of Laboratory Animal Care and kept on a 12-hour day/night cycle with unrestricted access to water and food. The Institutional Animal Care and Use Committee of Cedars-Sinai Medical Center approved the experimental protocols. […] Mice, maintained on normal chow diet, received subcutaneous primary immunization in the dorsal area between scapulas at 6-7 weeks of age, followed by a booster at 9 and 12 weeks of age. One week after last booster, diet was switched to high cholesterol chow (TD 88137, Harlan-Teklad) and continued until euthanasia at the age of 25 weeks. […]

[2] = test system: naïve male apoE (−/−) recipient mice; assay: Adoptive transfer of cells from immunized donors to naive apoE (−/−) recipients; format: in vivo
Description: Adoptive transfer experiment Male apoE (−/−) mice on regular chow received subcutaneous immunization as described in previous paragraph and were sacrificed at 13 weeks of age as donors. Splenocytes from the same treatment group were pooled before cell isolation. Donor CD8(+) T-cells, CD4(+)CD25(+) T-cells or B-cells were isolated using Dynabeads FlowComp (Invitrogen) according to the manufacturer's protocols. CD4(+) T-cells were negatively selected from the splenocytes followed by positive selection of CD4(+)CD25(+) cells. B cells were negatively isolated whereas CD8(+) T-cells were positively isolated first and released from beads. The purity of pooled CD8(+) T-cells, CD4(+)CD25(+) T-cells and B-cells was 90%, 80% and 70%, respectively. The isolated CD8(+) T-cells (1×10^6 cells/mouse), CD4(+)CD25(+) T-cells (1×10^5 or 3×10^5 cells/mouse) or B-cells (2×10^7 cells/mouse) were then adoptively transferred to naïve male apoE (−/−) recipient mice at 6-7 weeks of age via tail vein injection. In the published literatures of vascular biology, the number of adoptively transferred lymphocytes varied greatly. For B-cells transfer, the number of 2×10^7 cells/mouse was chosen based on two prior reports. (11),(12) For CD4(+)CD25(+) T-cells transfer, the number of cells transferred ranged from 5×10^4 cells/mouse to 1×10^6 cells/mouse in the published literature. […]

bone marrow derived DCs = assay: Cytolytic activity of CD8(+) T cells from immunized mice against dendritic cells in vitro; format: cell-based
Procedure: In Vitro Generation of BM-Derived dendritic cells (BMDCs) The method for generating BMDC with GM-CSF was adapted from previous publication with modification. (19) Briefly, bone marrow cells from femurs and tibiae of male apoE−/− mice were plated into 10 cm culture plates (Falcon) with 20 ml complete RPMI-1640 containing 10 ng/ml GM-CSF (R&D Systems) and 10 ng/ml IL-4 (Invitrogen). Cells were washed and fed on day 3 and day 5 by removing the old medium followed by replenishing with fresh culture medium with GM-CSF and IL-4. On day 8, the immature DC appeared as non-adherent cells under the microscope and harvested by vigorous pipetting and subcultured into new culture plates with 2×10^5 DCs in 1.5 ml medium.
CD8(+) T-cells were negatively isolated using a CD8 selection Dynabeads kit (Invitrogen) per manufacturer's protocol. The selected CD8(+) T-cells were then co-culture with DCs in a CD8:DC ratio of 3:1. A series of pilot studies has been performed to determine the optimal CD8:DC ratio for this assay. After co-culture for 4 hours, cells were collected and processed for flow cytometric determination of CD11c and 7-AAD by LSR II flow cytometer (BD Biosciences) and data was analyzed with Summit V4.3 software. Dendritic cell death without CD8(+) T-cells in the co-culture was used as baseline and percentage of specific lysis of cells was calculated using a method described previously. (20)
One week after the third immunization, mice were euthanized to collect spleen CD8^+ T cells. Bone-marrow derived DCs were differentiated from naïve apoE−/− mice and used as target cells. […]
Applicants therefore assessed the effect of the vaccine on cytotoxic activity of CD8^+ T cells against syngeneic bone marrow-derived DCs. […] Cells were collected and processed for flow cytometric determination of CD11c^+ and 7-AAD 4 hours later.^20 Dendritic cell death without CD8^+ T cells in the co-culture was used as baseline and percentage of specific lysis of cells was calculated using a method described previously.^20

BMDCs = assay: Endocytosis of FITC-labeled p210 by DCs in vitro; format: cell-based, mice; conditions: FITC fluorescence in BMDCs
Description: Peptide loading on BMDCs was defined using p210 labeled with FITC (FITC conjugating kit from Pierce).

[3] = test system: CD8+CD25− T cells co-cultured with DCs; assay: Presentation of p210 by DCs to CD8+CD25− T cells in co-culture; format: cell-based; conditions: 48 hours, DCs treated with LPS, compared to untreated or LPS only treated co-cultures
Description: The p210 peptide contains the proteoglycan binding site of the apoB-100 molecule. This peptide is a cell-penetrating peptide capable of efficiently delivering antigens for cross-presentation to cytotoxic CD8^+ T cells.^53 Applicants therefore assessed activation of CD8^+CD25^− T cells co-cultured with DCs loaded with p210 and matured with LPS.

[4] = CD8(+) T-cells from immunized mice vs PBS or cBSA/alum

“KTTKQ SFDLS VKAQY KKNKH (KTTKQSFDLSVKAQYKKNKH) [p210, amino acids 3136-3155 of human apoB-100]” was tested, and the “reduction in blood pressure” value [1] was “about 11%”, the “athero-reduction by dose (pilot experiment)” value (male apoE (−/−) mice) was “optimum athero-reduction” and the “lesion size in recipients of CD4(+)CD25(+) T-cells” value ([2]; 1×10^5 cells/mouse) was “no difference in lesion size”. The “lesion size in recipients of CD4(+)CD25(+) T-cells” value ([2]; 3×10^5 cells/mouse) was “did not reduce lesion sizes”, the “granzyme B expression of CD8(+) T-cells” value (bone marrow derived DCs; [4]) was “increased granzyme B expression” and the “perforin level of CD8(+) T-cells” value (bone marrow derived DCs; [4]) was “no difference in perforin level”. For the same substance, the “cytolytic activity after depletion of CD25+ cells” value (bone marrow derived DCs; CD8+ T cells depleted of CD25+ cells) was “abrogated the increased cytolytic activity”, the “uptake of FITC-labeled p210 by dendritic cells” value (BMDCs) was “endocytosed by DCs” and the “activated CD8+CD25+ T cells after co-culture with p210-loaded DCs” value [3] was “significantly increased CD8^+CD25^+ T cells”.
